pKi: −log10 of the molar value.
Key:
hCA XII = hCA XII (Homo sapiens, UniProt O43570); assay: stopped flow CO2 hydrase assay, hCA XII
Procedure: (§1) The tested CA panel was comprised of the two ubiquitously expressed cytosolic hCA I and II isoforms, along with the two tumor-related transmembrane hCA IX and XII isoforms. The activity of the synthesized hybrids was reported as Ki (inhibition constant) to assess their binding affinity. […] The inhibitor and enzyme solutions were first preincubated together for 15 min at room temperature to enable for the generation of the E–I complex. Photophysics stopped-flow instrument was used to measure the CA-catalyzed CO2 hydration activity. Phenol red (at a concentration of 0.2 mM) was added as an indicator after a period of 10–100 s in the CA-catalyzed CO2 hydration reaction at an absorbance maximum of 557 nm, with 20 mM Hepes (pH = 7.4) and 10 mM NaClO4 (to maintain constant ionic strength) [30]. […] In the initial 5–10% of the reaction, at least six traces were examined to determine the initial velocity for each inhibitor. Similarly, the total measured rates were used to measure the uncatalyzed rates [32]. Distilled–deionized water was used in the preparation of the Stock inhibitor solutions (10 mM), as well as dilutions up to 0.01 nM. The inhibition constants were measured utilizing PRISM 3, whereas the Lineweaver–Burk plots were used to measure the kinetic parameters which comprised the mean of at least three separate measurements [33, 34].

hCA II = hCA II (Homo sapiens, UniProt P00918); assay: stopped flow CO2 hydrase assay, hCA II
Procedure: as §1

hCA I = hCA I (Homo sapiens, UniProt P00915); assay: stopped flow CO2 hydrase assay, hCA I
Procedure: as §1

hCA IX = hCA IX (Homo sapiens, UniProt Q16790); assay: stopped flow CO2 hydrase assay, hCA IX
Procedure: as §1

Sequence of hCA XII (O43570 25-354): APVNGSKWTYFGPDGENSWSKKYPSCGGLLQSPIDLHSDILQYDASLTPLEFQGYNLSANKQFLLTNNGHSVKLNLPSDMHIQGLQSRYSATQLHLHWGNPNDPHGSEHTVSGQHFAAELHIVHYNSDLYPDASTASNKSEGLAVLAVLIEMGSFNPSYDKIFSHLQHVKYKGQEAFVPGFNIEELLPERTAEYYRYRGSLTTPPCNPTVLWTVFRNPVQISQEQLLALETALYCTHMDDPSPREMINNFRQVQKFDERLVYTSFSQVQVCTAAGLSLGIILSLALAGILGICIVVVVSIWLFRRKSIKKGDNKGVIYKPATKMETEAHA
Sequence of hCA I (P00915 whole entry): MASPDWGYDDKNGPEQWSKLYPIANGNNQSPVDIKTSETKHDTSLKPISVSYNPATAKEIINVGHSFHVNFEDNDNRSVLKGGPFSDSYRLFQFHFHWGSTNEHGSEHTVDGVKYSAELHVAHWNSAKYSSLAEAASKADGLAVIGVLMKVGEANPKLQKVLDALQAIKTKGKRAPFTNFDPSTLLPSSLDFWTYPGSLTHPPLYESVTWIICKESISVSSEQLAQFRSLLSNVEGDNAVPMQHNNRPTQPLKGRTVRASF

SMILES	pKi (hCA XII)	pKi (hCA II)	pKi (hCA I)	pKi (hCA IX)	selectivity for hCA II over hCA I (hCA II; ratio of Ki values)	selectivity for hCA II over hCA IX (hCA II; ratio of Ki values)	selectivity for hCA II over hCA XII (hCA II; ratio of Ki values)
NS(=O)(=O)c1ccc(O)c(NC(=O)c2ccc3[nH]ccc3c2)c1 [Compound 2g, N-(2-hydroxy-5-sulfamoylphenyl)-1H-indole-5-carboxamide]	7.07	6.17	5.32	6.55	–	–	–
NS(=O)(=O)c1ccc(NC(=O)CCc2c[nH]c3ccccc23)cc1 [Compound 2d, 3-(1H-indol-3-yl)-N-(4-sulfamoylphenyl)propanamide]	7.37	8.15	7.01	6.78	–	–	–
NS(=O)(=O)c1ccccc1NC(=O)c1ccc2cc[nH]c2c1 [Compound 2n, N-(2-sulfamoylphenyl)-1H-indole-6-carboxamide]	7.43	6.17	5.12	6.31	–	–	–
NS(=O)(=O)c1ccc(NC(=O)c2ccc3cc[nH]c3c2)cc1 [Compound 2k, N-(4-sulfamoylphenyl)-1H-indole-6-carboxamide]	7.08	6.08	5.33	6.37	–	–	–
NS(=O)(=O)c1ccccc1NC(=O)c1ccc2[nH]ccc2c1 [Compound 2i, N-(2-sulfamoylphenyl)-1H-indole-5-carboxamide]	7.05	7.14	5.13	6.20	–	–	–
NS(=O)(=O)c1ccc(NC(=O)c2ccc3[nH]ccc3c2)cc1 [Compound 2f, N-(4-sulfamoylphenyl)-1H-indole-5-carboxamide]	6.59	7.80	5.51	6.78	–	–	–
NS(=O)(=O)c1ccc(CCNC(=O)CCc2c[nH]c3ccccc23)cc1 [Compound 2c, 3-(1H-indol-3-yl)-N-(4-sulfamoylphenethyl)propanamide]	7.43	8.05	6.66	6.65	–	–	–
NS(=O)(=O)c1ccc(CCNC(=O)c2ccc3cc[nH]c3c2)cc1 [Compound 2m, N-(4-sulfamoylphenethyl)-1H-indole-6-carboxamide]	7.07	7.41	6.60	6.56	–	–	–
NS(=O)(=O)c1ccc(C(=O)Nc2ccc3[nH]ccc3c2)cc1 [Compound 2o, N-(1H-indol-5-yl)-4-sulfamoylbenzamide]	7.17	8.12	7.25	6.77	–	–	–
NS(=O)(=O)c1ccc(O)c(NC(=O)c2ccc3cc[nH]c3c2)c1 [Compound 2l, N-(2-hydroxy-5-sulfamoylphenyl)-1H-indole-6-carboxamide]	7.13	6.17	5.37	6.37	–	–	–
NS(=O)(=O)c1ccc(O)c(NC(=O)CCc2c[nH]c3ccccc23)c1 [Compound 2b, N-(2-hydroxy-5-sulfamoylphenyl)-3-(1H-indol-3-yl)propanamide]	7.07	8.14	5.55	6.54	–	–	–
NS(=O)(=O)c1cccc(NC(=O)c2ccc3cc[nH]c3c2)c1 [Compound 2j, N-(3-sulfamoylphenyl)-1H-indole-6-carboxamide]	7.39	7.02	5.27	6.18	–	–	–
NS(=O)(=O)c1cccc(NC(=O)CCc2c[nH]c3ccccc23)c1 [Compound 2a, 3-(1H-indol-3-yl)-N-(3-sulfamoylphenyl)propanamide]	7.27	8.23	7.10	6.69	13 fold	34 fold	9 fold
NS(=O)(=O)c1cccc(NC(=O)c2ccc3[nH]ccc3c2)c1 [Compound 2e, N-(3-sulfamoylphenyl)-1H-indole-5-carboxamide]	7.04	7.34	5.25	6.12	–	–	–
NS(=O)(=O)c1ccc(CCNC(=O)c2ccc3[nH]ccc3c2)cc1 [Compound 2h, N-(4-sulfamoylphenethyl)-1H-indole-5-carboxamide]	6.63	8.07	6.26	6.62	–	–	–

Source: paper PMC8910009, “Identification of Novel and Potent Indole-Based Benzenesulfonamides as Selective Human Carbonic Anhydrase II Inhibitors: Design, Synthesis, In Vitro, and In Silico Studies” (International Journal of Molecular Sciences, 2022)
